Source: the supplement of paper PMC10307832

Key:
Test in all cases: relative viability (nuclei count vs DMSO), 5 days (fraction); higher = more cells survive
LXF-289 = system: LXF-289
In short: (§1)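 Medians of duplicate plates are given as relative viability. That measure is the nuclei count in treated wells divided by the count in vehicle wells. Counts were taken on 4× images of lung cancer cell lines in 1536-well plates, 5 days after pin-tool dosing the day after seeding with one drug alone or a fixed anchor-drug dose plus five library-drug doses (not always all listed) in √10 steps.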

UMC-11 = system: UMC-11
In short: as §1

LK-2 = system: LK-2
In short: as §1

HCC-827 = system: HCC-827
In short: as §1

NCI-H2405 = system: NCI-H2405
In short: as §1

NCI-H1650 = system: NCI-H1650
In short: as §1

NCI-H3122 = system: NCI-H3122
In short: as §1

EKVX = system: EKVX
In short: as §1

LCLC-97TM1 = system: LCLC-97TM1
In short: as §1

NCI-H1355 = system: NCI-H1355
In short: as §1

SK-LU-1 = system: SK-LU-1
In short: as §1

NCI-H2170 = system: NCI-H2170
In short: as §1

PC-3 [JPC-3] = system: PC-3 [JPC-3]
In short: as §1

NCI-H1993 = system: NCI-H1993
In short: as §1

H3255 = system: H3255
In short: as §1

LU99A = system: LU99A
In short: as §1

SW 1573 = system: SW 1573
In short: as §1

HOP-62 = system: HOP-62
In short: as §1

EPLC-272H = system: EPLC-272H
In short: as §1

NCI-H2228 = system: NCI-H2228
In short: as §1

Nc1cccc2c1CN(C1CCC(=O)NC1=O)C2=O (configuration not stated) [Lenalidomide] + CS(=O)(=O)CCNCc1ccc(-c2ccc3ncnc(Nc4ccc(OCc5cccc(F)c5)c(Cl)c4)c3c2)o1 [Lapatinib] (partner 2 µM)
relative viability (LXF-289; first compound 0.253 µM): 0.928
relative viability (LXF-289; first compound 0.8 µM): 0.882
relative viability (LXF-289; first compound 2.53 µM): 0.991
relative viability (LXF-289; first compound 8 µM): 0.957
relative viability (UMC-11; first compound 0.253 µM): 1.1
relative viability (UMC-11; first compound 0.8 µM): 0.803
relative viability (UMC-11; first compound 2.53 µM): 1.04
relative viability (UMC-11; first compound 8 µM): 0.791
relative viability (LK-2; first compound 0.253 µM): 0.884
relative viability (LK-2; first compound 2.53 µM): 0.864
relative viability (LK-2; first compound 8 µM): 0.709
relative viability (HCC-827; first compound 0.253 µM): 0.189
relative viability (HCC-827; first compound 0.8 µM): 0.202
relative viability (HCC-827; first compound 2.53 µM): 0.151
relative viability (HCC-827; first compound 8 µM): 0.185
relative viability (NCI-H2405; first compound 0.253 µM): 1
relative viability (NCI-H2405; first compound 0.8 µM): 0.949
relative viability (NCI-H2405; first compound 2.53 µM): 1.03
relative viability (NCI-H2405; first compound 8 µM): 0.884
relative viability (NCI-H1650; first compound 0.253 µM): 0.75
relative viability (NCI-H1650; first compound 0.8 µM): 0.485
relative viability (NCI-H1650; first compound 2.53 µM): 0.835
relative viability (NCI-H1650; first compound 8 µM): 0.731
relative viability (NCI-H3122; first compound 0.253 µM): 1.04
relative viability (NCI-H3122; first compound 0.8 µM): 1.03
relative viability (NCI-H3122; first compound 2.53 µM): 0.974
relative viability (NCI-H3122; first compound 8 µM): 1.13
relative viability (EKVX; first compound 0.253 µM): 0.208
relative viability (EKVX; first compound 0.8 µM): 0.173
relative viability (EKVX; first compound 2.53 µM): 0.189
relative viability (EKVX; first compound 8 µM): 0.157
relative viability (LCLC-97TM1; first compound 0.8 µM): 0.602
relative viability (LCLC-97TM1; first compound 2.53 µM): 1.09
relative viability (LCLC-97TM1; first compound 8 µM): 0.623
relative viability (NCI-H1355; first compound 0.253 µM): 1
relative viability (NCI-H1355; first compound 0.8 µM): 0.623
relative viability (NCI-H1355; first compound 2.53 µM): 0.963
relative viability (NCI-H1355; first compound 8 µM): 0.606
relative viability (SK-LU-1; first compound 0.253 µM): 0.804
relative viability (SK-LU-1; first compound 0.8 µM): 0.891
relative viability (SK-LU-1; first compound 2.53 µM): 1.11
relative viability (SK-LU-1; first compound 8 µM): 0.889
relative viability (NCI-H2170; first compound 0.253 µM): 0.26
relative viability (NCI-H2170; first compound 0.8 µM): 0.293
relative viability (NCI-H2170; first compound 2.53 µM): 0.296
relative viability (NCI-H2170; first compound 8 µM): 0.247
relative viability (PC-3 [JPC-3]; first compound 0.253 µM): 0.515
relative viability (PC-3 [JPC-3]; first compound 0.8 µM): 0.377
relative viability (PC-3 [JPC-3]; first compound 2.53 µM): 0.496
relative viability (PC-3 [JPC-3]; first compound 8 µM): 0.389
relative viability (NCI-H1993; first compound 0.253 µM): 0.894
relative viability (NCI-H1993; first compound 0.8 µM): 0.831
relative viability (NCI-H1993; first compound 2.53 µM): 0.821
relative viability (NCI-H1993; first compound 8 µM): 0.722
relative viability (H3255; first compound 0.253 µM): 0.237
relative viability (H3255; first compound 0.8 µM): 0.191
relative viability (H3255; first compound 2.53 µM): 0.317
relative viability (H3255; first compound 8 µM): 0.227
relative viability (LU99A; first compound 0.253 µM): 0.922
relative viability (LU99A; first compound 0.8 µM): 0.919
relative viability (LU99A; first compound 2.53 µM): 0.894
relative viability (LU99A; first compound 8 µM): 0.56
relative viability (SW 1573; first compound 0.253 µM): 1.12
relative viability (SW 1573; first compound 0.8 µM): 1.08
relative viability (SW 1573; first compound 2.53 µM): 1.12
relative viability (SW 1573; first compound 8 µM): 0.992
relative viability (HOP-62; first compound 0.253 µM): 1
relative viability (HOP-62; first compound 0.8 µM): 0.578
relative viability (HOP-62; first compound 2.53 µM): 1.26
relative viability (HOP-62; first compound 8 µM): 0.924
relative viability (EPLC-272H; first compound 0.253 µM): 0.97
relative viability (EPLC-272H; first compound 2.53 µM): 0.976
relative viability (EPLC-272H; first compound 8 µM): 0.648
relative viability (NCI-H2228; first compound 0.253 µM): 0.997
relative viability (NCI-H2228; first compound 0.8 µM): 0.864
relative viability (NCI-H2228; first compound 2.53 µM): 1.59
relative viability (NCI-H2228; first compound 8 µM): 0.958
